# Key:
# Assay in all cases: relative viability (nuclei count vs DMSO), 5 days (fraction); higher = more cells survive
# NCI-H1915 = system: NCI-H1915
# Method in brief: (§1)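 Medians of duplicate plates are given as relative viability. That measure is the nuclei count in treated wells divided by the count in vehicle wells. Counts were taken on 4× images of lung cancer cell lines in 1536-well plates, 5 days after pin-tool dosing the day after seeding with one drug alone or a fixed anchor-drug dose plus five library-drug doses (not always all listed) in √10 steps.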
# NCI-H1975 = system: NCI-H1975
# Method in brief: as §1
# NCI-H1993 = system: NCI-H1993
# Method in brief: as §1
# NCI-H2023 = system: NCI-H2023
# Method in brief: as §1
# NCI-H2085 = system: NCI-H2085
# Method in brief: as §1
# NCI-H2126 = system: NCI-H2126
# Method in brief: as §1
# NCI-H3122 = system: NCI-H3122
# Method in brief: as §1
# NCI-H322M = system: NCI-H322M
# Method in brief: as §1
# NCI-H358 = system: NCI-H358
# Method in brief: as §1
# NCI-H441 = system: NCI-H441
# Method in brief: as §1
# NCI-H522 = system: NCI-H522
# Method in brief: as §1
# UMC-11 = system: UMC-11
# Method in brief: as §1
smiles,measurement,setting,value
Clc1ccc(Nc2nnc(Cc3ccncc3)c3ccccc23)cc1 [Vatalanib] + CC(=O)c1c(C)c2cnc(Nc3ccc(N4CCNCC4)cn3)nc2n(C2CCCC2)c1=O [Palbociclib] (partner 0.5 µM),relative viability,NCI-H1915; first compound 0.04 µM,0.533
same,relative viability,NCI-H1915; first compound 0.1265 µM,0.526
same,relative viability,NCI-H1915; first compound 0.4 µM,0.516
same,relative viability,NCI-H1915; first compound 1.265 µM,0.511
same,relative viability,NCI-H1915; first compound 4 µM,0.511
same,relative viability,NCI-H1975; first compound 0.04 µM,0.651
same,relative viability,NCI-H1975; first compound 0.1265 µM,0.5
same,relative viability,NCI-H1975; first compound 0.4 µM,0.768
same,relative viability,NCI-H1975; first compound 1.265 µM,0.528
same,relative viability,NCI-H1975; first compound 4 µM,0.489
same,relative viability,NCI-H1993; first compound 0.04 µM,0.872
same,relative viability,NCI-H1993; first compound 0.1265 µM,0.653
same,relative viability,NCI-H1993; first compound 0.4 µM,0.814
same,relative viability,NCI-H1993; first compound 1.265 µM,0.562
same,relative viability,NCI-H1993; first compound 4 µM,0.528
same,relative viability,NCI-H2023; first compound 0.04 µM,0.375
same,relative viability,NCI-H2023; first compound 0.1265 µM,0.344
same,relative viability,NCI-H2023; first compound 0.4 µM,0.439
same,relative viability,NCI-H2023; first compound 1.265 µM,0.393
same,relative viability,NCI-H2023; first compound 4 µM,0.366
same,relative viability,NCI-H2085; first compound 0.04 µM,0.457
same,relative viability,NCI-H2085; first compound 0.1265 µM,0.469
same,relative viability,NCI-H2085; first compound 0.4 µM,0.492
same,relative viability,NCI-H2085; first compound 1.265 µM,0.433
same,relative viability,NCI-H2085; first compound 4 µM,0.475
same,relative viability,NCI-H2126; first compound 0.04 µM,0.314
same,relative viability,NCI-H2126; first compound 0.1265 µM,0.34
same,relative viability,NCI-H2126; first compound 0.4 µM,0.383
same,relative viability,NCI-H2126; first compound 1.265 µM,0.335
same,relative viability,NCI-H2126; first compound 4 µM,0.363
same,relative viability,NCI-H3122; first compound 0.04 µM,0.163
same,relative viability,NCI-H3122; first compound 0.1265 µM,0.213
same,relative viability,NCI-H3122; first compound 0.4 µM,0.195
same,relative viability,NCI-H3122; first compound 1.265 µM,0.237
same,relative viability,NCI-H3122; first compound 4 µM,0.182
same,relative viability,NCI-H322M; first compound 0.04 µM,0.432
same,relative viability,NCI-H322M; first compound 0.1265 µM,0.492
same,relative viability,NCI-H322M; first compound 0.4 µM,0.49
same,relative viability,NCI-H322M; first compound 4 µM,0.501
same,relative viability,NCI-H358; first compound 0.04 µM,0.139
same,relative viability,NCI-H358; first compound 0.1265 µM,0.131
same,relative viability,NCI-H358; first compound 0.4 µM,0.149
same,relative viability,NCI-H358; first compound 1.265 µM,0.123
same,relative viability,NCI-H358; first compound 4 µM,0.136
same,relative viability,NCI-H441; first compound 0.04 µM,0.223
same,relative viability,NCI-H441; first compound 0.1265 µM,0.194
same,relative viability,NCI-H441; first compound 0.4 µM,0.253
same,relative viability,NCI-H441; first compound 1.265 µM,0.194
same,relative viability,NCI-H441; first compound 4 µM,0.223
same,relative viability,NCI-H522; first compound 0.04 µM,0.872
same,relative viability,NCI-H522; first compound 0.1265 µM,1.06
same,relative viability,NCI-H522; first compound 0.4 µM,1.18
same,relative viability,NCI-H522; first compound 1.265 µM,1.06
same,relative viability,NCI-H522; first compound 4 µM,0.993
same,relative viability,UMC-11; first compound 0.04 µM,0.3
same,relative viability,UMC-11; first compound 0.1265 µM,0.316
same,relative viability,UMC-11; first compound 0.4 µM,0.34
same,relative viability,UMC-11; first compound 1.265 µM,0.356
same,relative viability,UMC-11; first compound 4 µM,0.338
